This note sets out measurements from the supplement of paper PMC10331698.

Assay in all cases: level (log10 ratio to DMSO vehicle control); higher = higher biomarker level / cell amount than vehicle control
Compound in assay [1]: NS(=O)(=O)C(F)(F)C(F)(F)C(F)(F)C(F)(F)C(F)(F)C(F)(F)C(F)(F)C(F)(F)F [Perfluorooctanesulfonamide] (in DMSO)
As for the experimental part:
(§1)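 BioMAP Diversity Plus panel of 12 human primary cell co-culture systems (3C, 4H, LPS, SAg, BT, BF4T, BE3C, CASM3C, HDF3CGF, KF3CT, MyoF, Mphg). Compounds were added 1 h before stimulation and left for 24 h (MyoF 48 h; BT 72 h for soluble read-outs or 6 d for IgG). Biomarkers were read by ELISA, cytotoxicity by SRB, PBMC viability and proliferation by Alamar Blue. Each well value was divided by the mean of 8 DMSO control wells on the same plate and log10 transformed; duplicate blinded samples were tested at 4 concentrations.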

Compound in assay [2]: OCC(F)(F)C(F)(F)C(F)(F)C(F)(F)C(F)(F)C(F)(F)CO [1H,1H,8H,8H-Perfluorooctane-1,8-diol] (in DMSO)
As for the experimental part:
as §1

Compound in the next assay: O=C(O)C(F)(F)C(F)(F)C(F)(F)C(F)(F)C(=O)O [Octafluoroadipic acid] (in DMSO)
As for the experimental part: as §1

Compound in assay [3]: CO[Si](C)(CCC(F)(F)C(F)(F)C(F)(F)C(F)(F)C(F)(F)C(F)(F)F)OC [Dimethoxymethyl((perfluorohexyl)ethyl)silane] (in DMSO)
How it is done:
as §1

Compound in assay [4]: O=S(=O)(O)C(F)(F)C(F)(F)OC(F)(F)C(F)(F)F [Perfluoro(2-ethoxyethane)sulfonic acid] (in DMSO)
How it is done:
as §1

Compound in assay [5]: O=C(O)C(F)(OC(F)(F)C(F)(OC(F)(F)C(F)(OC(F)(F)C(F)(F)C(F)(F)F)C(F)(F)F)C(F)(F)F)C(F)(F)F [Perfluoro-(2,5,8-trimethyl-3,6,9-trioxadodecanoic)acid] (in DMSO)
As for the experimental part:
as §1

Compound in assay [6]: O=C(O)C(F)(OC(F)(F)C(F)(F)C(F)(F)F)C(F)(F)F [Ammonium perfluoro-2-methyl-3-oxahexanoate] (in Water)
As for the experimental part: as §1

± gives the standard deviation of the averaged measurements.

In the case of BT:B cell Proliferation, the “level (log10)” value in assay [1] (6700 nM) is 0.0205 ± 0.0064; in assay [1] (20000 nM) it was 0.024 ± 0.028; in assay [2] (6700 nM), -0.029 ± 0.024; in assay [2] (20000 nM), -0.007 ± 0.038; in assay [2] (60000 nM), -0.0195 ± 0.052; with Octafluoroadipic acid (6700 nM), -0.014 ± 0.0028. Further, the “level (log10)” value with Octafluoroadipic acid (20000 nM) is -0.023 ± 0.016; with Octafluoroadipic acid (60000 nM), 0.005 ± 0.031; in assay [3] (6700 nM) it was 0.0085 ± 0.011; in assay [3] (20000 nM), 0.023 ± 0.0042; in assay [4] (6700 nM), 0.011 ± 0.011; in assay [4] (20000 nM), 0.0575 ± 0.036. The “level (log10)” value in assay [4] (60000 nM) is 0.034 ± 0.0014; in assay [5] (1100 nM), -0.029 ± 0.027; in assay [5] (3300 nM), -0.0035 ± 0.013; in assay [5] (10000 nM), -0.0145 ± 0.011; in assay [6] (6700 nM), -0.239 ± 0.0085; in assay [6] (20000 nM), -0.256 ± 0.011. Moreover, in assay [6] (60000 nM), the “level (log10)” value is -0.248 ± 0.0035.
As to BT:PBMC Cytotoxicity, the “level (log10)” value is 0.0175 ± 0.0064 in assay [1] (6700 nM); 0.03 ± 0.0099 in assay [1] (20000 nM); 0.0065 ± 0.0092 in assay [2] (6700 nM); -0.0145 ± 0.011 in assay [2] (20000 nM); -0.0595 ± 0.011 in assay [2] (60000 nM); -0.0015 ± 0.029 with Octafluoroadipic acid (6700 nM). In addition, the “level (log10)” value with Octafluoroadipic acid (20000 nM) was 0.001 ± 0.0014; with Octafluoroadipic acid (60000 nM), 0.0025 ± 0.019; in assay [3] (6700 nM) it was -0.0015 ± 0.0021; in assay [3] (20000 nM), 0.023 ± 0.0028; in assay [4] (6700 nM), 0.0245 ± 0.033; in assay [4] (20000 nM), 0.0005 ± 0.0035. Also, the “level (log10)” value is 0.056 ± 0.013 in assay [4] (60000 nM); -0.0095 ± 0.0092 in assay [5] (1100 nM); -0.022 ± 0.011 in assay [5] (3300 nM); -0.04 ± 0.047 in assay [5] (10000 nM); -0.083 ± 0.016 in assay [6] (6700 nM); -0.095 ± 0.0099 in assay [6] (20000 nM). Also, the “level (log10)” value in assay [6] (60000 nM) is -0.0905 ± 0.023.
Regarding BT:Secreted IgG, the “level (log10)” value in assay [1] (6700 nM) is -0.018 ± 0.0085; in assay [1] (20000 nM), -0.141 ± 0.1; in assay [2] (6700 nM), -0.0265 ± 0.016; in assay [2] (20000 nM) it was -0.0095 ± 0.016; in assay [2] (60000 nM), -0.098 ± 0.0099; in the assay with Octafluoroadipic acid (6700 nM), 0.0285 ± 0.033. The “level (log10)” value was 0.028 ± 0.027 with Octafluoroadipic acid (20000 nM); 0.0435 ± 0.011 in the assay with Octafluoroadipic acid (60000 nM); 0.0505 ± 0.0078 in assay [3] (6700 nM); 0.021 ± 0.018 in assay [3] (20000 nM); 0.0355 ± 0.0035 in assay [4] (6700 nM); -0.0135 ± 0.084 in assay [4] (20000 nM). Also, the “level (log10)” value in assay [4] (60000 nM) is -0.0095 ± 0.086; in assay [5] (1100 nM), 0.0215 ± 0.049; in assay [5] (3300 nM), 0.0315 ± 0.013; in assay [5] (10000 nM), 0.0065 ± 0.021; in assay [6] (6700 nM) it was -0.12 ± 0.07; in assay [6] (20000 nM), -0.113 ± 0.059. In assay [6] (60000 nM), the “level (log10)” value was -0.156.
With BT:sIL-2, the “level (log10)” value in assay [1] (6700 nM) is -0.0115 ± 0.049; in assay [1] (20000 nM) it was 0.0005 ± 0.028; in assay [2] (6700 nM) it was 0.0065 ± 0.063; in assay [2] (20000 nM), 0.008 ± 0.027; in assay [2] (60000 nM) it was 0.0055 ± 0.04; in the assay with Octafluoroadipic acid (6700 nM), -0.006 ± 0.15. The “level (log10)” value with Octafluoroadipic acid (20000 nM) is -0.012 ± 0.021; with Octafluoroadipic acid (60000 nM), -0.0495 ± 0.061; in assay [3] (6700 nM), -0.0455 ± 0.12; in assay [3] (20000 nM), 0.0425 ± 0.026; in assay [4] (6700 nM), -0.023 ± 0.0085; in assay [4] (20000 nM), -0.0935 ± 0.04. Besides, the “level (log10)” value in assay [4] (60000 nM) was -0.0595 ± 0.066; in assay [5] (1100 nM), 0 ± 0.05; in assay [5] (3300 nM) it was 0.061 ± 0.069; in assay [5] (10000 nM), 0.0465 ± 0.026; in assay [6] (6700 nM), -0.093 ± 0.0099; in assay [6] (20000 nM), -0.0525 ± 0.015. Also, in assay [6] (60000 nM), the “level (log10)” value was -0.124 ± 0.028.
